Measured values taken from the NIST ThermoML archive (doi:10.1016/j.tca.2013.05.039).
Numbers after ± are expanded uncertainties.

Legend:
[1] = Adiabatic calorimetry
[2] = Molar enthalpy of transition or fusion; conditions: Adiabatic calorimetry

- Triple point temperature ([1]; Crystal 2): 186.18 ± 0.049 K
- Triple point temperature ([1]; Crystal): 279.86 ± 0.066 K
- Molar enthalpy of transition or fusion ([2]; Crystal 2): 1.61 ± 0.0163 kcal/mol
- Molar enthalpy of transition or fusion ([2]; Crystal): 0.642 ± 0.0129 kcal/mol
SMILES: C1CCCCC1 [cyclohexane]
